Results: patent US10030044B2, “Nucleotides for the treatment of liver cancer” (IDENIX PHARMACEUTICALS LLC, priority 2013, dated 2018)

Key:
[1] = Mouse liver pharmacokinetics (liver triphosphate levels) following a single oral dose; type: in vivo, mice; details: for Fold change Mouse Liver GemC TP compared to Gemcitabine / Fold change Mouse Liver GemC TP produced compared to GemU TP: single oral dose, calculated from Table 2 data
Procedure: A single oral dose of test compound in PEG 200 (dose volume 5 mL/kg) was administered to C57BL/6 male mice. Five untreated animals were used for the collection of control plasma and liver. Terminal plasma and liver samples were collected from three animals per time point at 1, 2, 4, 12, and 24 hours post dose. Liver specimens were collected from all animals immediately after the incision. Freezing forceps stored in liquid nitrogen were used to freeze the liver before excision. […]
Liver samples were analyzed for corresponding active triphosphate species by LC-MS/MS. Triphosphate levels were assayed by homogenizing (on ice) a known weight of mouse liver with 4× volume of 0.95 M trichloroacetic acid (TCA). Internal standard solution was added to the homogenate followed by neutralization with 20% ammonium hydroxide solution and addition of 500 μL 1% formic acid. The tissue samples were extracted by weak anion exchange solid phase extraction (SPE). Post extraction, the eluates were evaporated under nitrogen, followed by reconstitution before injection onto the LC-MS/MS system. The samples were chromatographed on a Luna NH2 column using a gradient system of ammonium acetate (1 mM to 20 mM and pH 8.0 to pH 10.0) in water and acetonitrile (70:30). The analyte was detected and quantified by tandem mass spectrometry in positive ion mode on an API4000 equipped with a Turbo Ionspray® interface. The calibration range was 10 to 10000 pmol/mL in mouse liver homogenate (50 to 50000 pmol/g of mouse liver).

[2] = tested on: HepG2 cell line; assay: In Vitro Inhibition of Hep G2 Hepatocytes (CellTiter-Glo, 72 hr); type: cell-based; details: HepG2 cells, 72 hr exposure
Procedure: Cells were grown in RPMI-1640 supplemented with L-glutamine and 10% FBS: HepG2.
96 well plates of HepG2 cell line were seeded with the optimized number of cells per well in a total volume of 50 μL per well. The plates were left overnight. Some wells were seeded with 100 μL of media for media control. The following day, cells were exposed to test compounds. At same time as drug exposure, a CTG assay was conducted on 1st plate for the 0 hr count.
2× stocks of each compound in media were prepared for dosing, as follows:
50 μL of above 2× stocks were added to cells and medium already on plate to give final concentrations. 50 μL media were added to cell control wells, and 50 μL of mix added to vehicle control wells. 10 μM Dox was added to appropriate wells. Cells exposed to test compounds were incubated at 37° C. for 72 hr followed by a CTG assay.
At the end of the 72 hr exposure period, plates were removed for a CellTiter-Glo (CTG) assay from a 37° C., 5% CO2 incubator and placed on the bench at room temperature for 30 mins. 100 μL of CellTiter-Glo reagent was added and mixed for 2 mins, followed by a further 10 min incubation at room temperature. Luminescence was recorded using Synergy 4.0.

Row | Compound | Fold change Mouse Liver GemC TP compared to Gemcitabine [1] | Fold change Mouse Liver GemC TP produced compared to GemU TP [1] | IC50 ([2]; Homo sapiens) [µM] | other results
1 | CC(C)OC(=O)[C@@H](C)NP(=O)(OC[C@H]1O[C@@H](n2ccc(N)nc2=O)C(F)(F)[C@@H]1O)Oc1ccccc1 (single isomer, unassigned) [Compound 4, Diastereomer 2] | ++ (5 < ++ ≤ 10) | +++ (10 < +++ ≤ 25) | – | IC50 [2]: > 10 µM
2 | C[C@H](NP(=O)(OC[C@H]1O[C@@H](n2ccc(N)nc2=O)C(F)(F)[C@@H]1O)Oc1ccccc1)C(=O)OCc1ccccc1 (single isomer, unassigned) [drawing 127] | – | – | – | Fold change Mouse Liver GemC TP compared to Gemcitabine ([1]; listed as drawing 130): ++++ (25 < ++++ ≤ 50); Fold change Mouse Liver GemC TP produced compared to GemU TP ([1]; listed as drawing 130): +++ (10 < +++ ≤ 25)
3 | Nc1ccn([C@@H]2O[C@H](CO)[C@@H](O)C2(F)F)c(=O)n1 [drawing 125] | – | – | ≤ 0.01 | –
4 | CC(C)OC(=O)[C@@H](C)NP(=O)(OC[C@H]1O[C@@H](n2ccc(N)nc2=O)C(F)(F)[C@@H]1O)Oc1ccccc1 (single isomer, unassigned) [Compound 4, Diastereomer 1] | ++++++ (100 < ++++++) | ++++ (25 < ++++ ≤ 50) | > 10 | Clast ([1]; analyte GemU TP in mouse liver, single oral dose 182 mg/kg in PEG 200, 182 mg/kg): +++ (5,000 < +++ ≤ 15,000)
5 | Nc1ccn([C@@H]2O[C@H](CO)[C@@H](O)C2(F)F)c(=O)n1 [Gemcitabine, gemcitabine] | – | + (+ ≤ 5) | – | –
6 | C[C@H](NP(=O)(OC[C@H]1O[C@@H](n2ccc(N)nc2=O)C(F)(F)[C@@H]1O)Oc1ccccc1)C(=O)OCc1ccccc1 (single isomer, unassigned) [drawing 124] | – | – | 1 to 10 | Fold change Mouse Liver GemC TP compared to Gemcitabine ([1]; listed as drawing 131): + (+ ≤ 5); Fold change Mouse Liver GemC TP produced compared to GemU TP ([1]; listed as drawing 131): + (+ ≤ 5)
